One block for each compound: values may come before it.
Tests used:
AQP-11 = biological target: T1, AQP-11 (Homo sapiens, UniProt Q8NBQ7); experiment: Kinetic screening assay, cells overexpressing AQP-11; format: cell-based
T1 construct: expressed in transfected cells
T1 sequence (Q8NBQ7 1-271): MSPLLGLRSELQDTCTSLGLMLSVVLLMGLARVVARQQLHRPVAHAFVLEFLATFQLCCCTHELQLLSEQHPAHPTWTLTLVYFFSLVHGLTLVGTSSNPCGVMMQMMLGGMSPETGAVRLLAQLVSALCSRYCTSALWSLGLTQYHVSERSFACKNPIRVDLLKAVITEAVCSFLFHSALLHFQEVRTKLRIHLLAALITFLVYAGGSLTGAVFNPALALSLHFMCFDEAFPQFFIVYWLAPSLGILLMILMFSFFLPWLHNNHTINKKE

[1] = test system: rat traumatic brain injury model; settings: cited from earlier work
AQP-4 [2] = settings: rat model of epilepsy; cited from earlier work
AQP-4 [3] = settings: pre-treatment, mouse model of stroke; cited from earlier work
AQP-6 = biological target: T2, AQP-6 (Homo sapiens, UniProt Q13520); experiment: Kinetic screening assay, cells overexpressing AQP-6; format: cell-based
T2 construct: expressed in transfected cells
T2 sequence (Q13520 1-282): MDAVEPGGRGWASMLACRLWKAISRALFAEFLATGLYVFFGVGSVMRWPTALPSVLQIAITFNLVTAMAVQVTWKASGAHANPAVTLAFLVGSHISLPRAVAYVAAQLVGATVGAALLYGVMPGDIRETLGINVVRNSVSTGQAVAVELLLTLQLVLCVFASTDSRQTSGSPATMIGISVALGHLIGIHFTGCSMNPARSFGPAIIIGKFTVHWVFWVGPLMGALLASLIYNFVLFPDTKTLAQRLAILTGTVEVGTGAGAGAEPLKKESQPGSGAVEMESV

AQP-2 = biological target: T3, AQP-2 (Homo sapiens, UniProt P41181); experiment: Kinetic screening assay, cells overexpressing AQP-2; format: cell-based
T3 construct: expressed in transfected cells
T3 sequence (P41181 1-271): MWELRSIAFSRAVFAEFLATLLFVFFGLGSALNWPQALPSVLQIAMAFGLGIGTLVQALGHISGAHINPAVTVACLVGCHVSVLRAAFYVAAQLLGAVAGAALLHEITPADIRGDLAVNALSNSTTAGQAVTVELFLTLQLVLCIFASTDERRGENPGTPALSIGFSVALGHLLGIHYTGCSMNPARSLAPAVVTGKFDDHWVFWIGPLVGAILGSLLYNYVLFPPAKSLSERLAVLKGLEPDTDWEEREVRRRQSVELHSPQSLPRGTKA
Text: Effects of candidate AQP-4 inhibitors on cell swelling in vitro. Kinetic screening assay: In order to assess the effects of the resulting 50 compounds selected from in silico screening efforts on cell swelling, a calcein-fluorescence assay that measures plasma membrane water permeability was used. Alvarez-Leefmans et al. established a technique to estimate changes in cell volume as a function of changes in concentration using a calcein-AM, a non-fluorescent and membrane-permeant dye.^53 After entering the cell, calcein-AM is converted to calcein by removal of the acetoxymethyl group (AM) by intracellular esterases. […] The fluorescence signal is calibrated by brief exposures of the calcein-loaded cells to, for example, 15% hypotonic and 15% hypertonic solutions and the average signal intensity from the cell is detected. […] The test compounds were then added (4-9 μM) and the fluorescence was measured using a Biotek plate reader (excitation 490 nm and emission 515 nm). Relative fluorescence intensity (RfU) was calculated as the fluorescence intensity of each well divided by the mean fluorescence intensity of cells treated with DMSO (control). […]
AQP-2 DHA-35. Using the kinetic screening assay described hereinabove, cells overexpressing AQP-2 were screened with test compounds of interest and their fluorescence signal were evaluated. […]

- AQP-11 activity, fluorescence signal (AQP-11): modulators
Compound: C=CCn1nc(C(=O)N2CCCCCC2)c2c1CCC(NCCCN1CCCC1=O)C2 (stereo not shown) [DHA-6]

Compound: CC(=O)Nc1nnc(S(N)(=O)=O)s1 [Acetazolamide, acetazolamide]
- edema [1]: reduce edema
- AQP-4 inhibition in vivo (AQP-4 [2]): inhibit AQP-4

Compound: O=C(Nc1nncs1)c1cccnc1 [TGN-020, 2-(nicotinamide)-1,3,4-thiadiazole]
- edema and infarct size (AQP-4 [3]): reduce edema and infarct size

- AQP-6 activity, fluorescence signal (AQP-6): inhibitor
Compound: COCC(C)n1c(CCCC(=O)N2CCC3(CC2)CNC(=O)C3)nc2cccnc21 (stereo not shown) [DHA-36]

- AQP-11 activity, fluorescence signal (AQP-11): modulators
Compound: Cc1onc(-c2ccccc2)c1C(=O)NCc1nnc(SCc2ccccc2Cl)n1CC(C)C [DHA-37]

- AQP-2 activity, fluorescence signal (AQP-2): inhibitor
Compound: CSc1ccc(C(=O)NC(c2ccc3c(c2)CCO3)[C@H]2C[C@@H](O)C2)cc1 (stereo partly shown) [DHA-35]

From patent US10945995B2, “Compositions and methods for channelopathy disorders-targeting fluid movement across membranes” (DEHA, LLC, priority 2017, dated 2021)
